According to ChEMBL document CHEMBL1275575, “Susceptibility of Mycobacterium bovis BCG vaccine strains to antituberculous antibiotics” (Antimicrob Agents Chemother, 2009):

Test system: Homo sapiens
Experiment: Drug level in human serum at 10 mg/kg
Type: ADME, organism-based
Parameters: dose 10 mg/kg
Conditions: in vivo

SMILES: NNC(=O)c1ccncc1 [ISONIAZID]
- Drug uptake: 0.4 µg/mL
